Data set [1] has as its system substance P and glutamate. Description: Clinical observation of suppression of substance P and glutamate by nitrous oxide. The class given is in vivo. The source says:
The length of treatment to suppress the severe cytokine reaction will vary and be influenced by the time to medically correct the initiating factor. […] For children, adjustments will have to be made for age and body weight. […] Other inhalants can be included in the above-compositions such as for other purposes.

For data set [2] the following is noted: at effective dosages; cited from earlier work.

We go through one compound from US20240238333A1 (Penland Foundation, priority 2023, published 2024).

`[N-]=[N+]=O` [nitrous oxide]: in data set [1] (average cases), the “Duration of substance P suppression, average cases” value was 4 to 8 h. For the same compound, the “duration of suppression of substance P and glutamate” value in data set [1] (conscious sedation levels, about 50% nitrous oxide/about 50% oxygen) fell in the range of 6 to 8 h. Further, the “respiratory depression, over sedation, or irritation of the lungs” value in data set [2] is reported as “does not cause respiratory depression, over sedation, or irritation of the lungs”.
